Data from the NIST ThermoML archive (doi:10.1016/j.fluid.2010.03.001).
Numbers after ± are expanded uncertainties.

How the values were obtained:
[1] = Liquid; for viscosity / mass density: 101.33 kPa; for viscosity: Concentric cylinders viscometry; for mass density: Vibrating tube method; for vapor or sublimation pressure: Ebulliometric method (Recirculating still)
[2] = xn = mol fraction of the nth substance listed; details: 101 kPa, Liquid, x1 = 1; for viscosity: Concentric cylinders viscometry; for mass density: Vibrating tube method

| SMILES | viscosity ([1]; 293.15 K) | viscosity ([1]; 298.15 K) | mass density ([1]; 298.15 K) | viscosity ([1]; 303.15 K) | mass density ([1]; 303.15 K) | viscosity ([1]; 313.15 K) | mass density ([1]; 313.15 K) | viscosity ([1]; 323.15 K) | mass density ([1]; 323.15 K) | viscosity ([1]; 333.15 K) | mass density ([1]; 333.15 K) | viscosity ([1]; 343.15 K) | mass density ([1]; 343.15 K) | viscosity ([1]; 353.15 K) | mass density ([1]; 353.15 K) | viscosity ([1]; 363.15 K) | mass density ([1]; 363.15 K) | viscosity ([1]; 373.15 K) | mass density ([1]; 373.15 K) | further results |
| --- | --- | --- | --- | --- | --- | --- | --- | --- | --- | --- | --- | --- | --- | --- | --- | --- | --- | --- | --- | --- |
| C=C(C)[C@H]1CC=C(C)CC1 [(R)-1-methyl-4-(1-methylethenyl)cyclohexene] | 0.902 ± 0.014 mPa·s | 0.89 ± 0.014 mPa·s | 837.3 ± 1 kg/m3 | 0.793 ± 0.013 mPa·s | 833.6 ± 1 kg/m3 | 0.702 ± 0.011 mPa·s | 825.8 ± 1 kg/m3 | 0.628 ± 0.01 mPa·s | 817.9 ± 1 kg/m3 | 0.566 ± 0.01 mPa·s | 809.9 ± 0.9 kg/m3 | 0.5 ± 0.009 mPa·s | 801.9 ± 0.9 kg/m3 | 0.452 ± 0.008 mPa·s | 793.6 ± 0.9 kg/m3 | 0.413 ± 0.008 mPa·s | 785.4 ± 0.9 kg/m3 | 0.382 ± 0.007 mPa·s | 777.1 ± 0.9 kg/m3 | – |
| CCCCCO [pentan-1-ol] | 4.03 ± 0.04 mPa·s | 3.48 ± 0.04 mPa·s | 810.7 ± 0.3 kg/m3 | 3.02 ± 0.03 mPa·s | 807.2 ± 0.3 kg/m3 | 2.315 ± 0.024 mPa·s | 799.8 ± 0.3 kg/m3 | 1.801 ± 0.019 mPa·s | 792.2 ± 0.3 kg/m3 | 1.425 ± 0.015 mPa·s | 784.3 ± 0.3 kg/m3 | 1.146 ± 0.013 mPa·s | 776.3 ± 0.3 kg/m3 | 0.935 ± 0.011 mPa·s | 768 ± 0.3 kg/m3 | 0.772 ± 0.009 mPa·s | 759.5 ± 0.3 kg/m3 | 0.647 ± 0.008 mPa·s | 750.6 ± 0.3 kg/m3 | mass density ([1]; 293.15 K): 814.7 ± 0.3 kg/m3; vapor or sublimation pressure ([1]; 328.15 K): 2.3 ± 0.1 kPa; vapor or sublimation pressure ([1]; 329.5 K): 2.5 ± 0.1 kPa; vapor or sublimation pressure ([1]; 333.15 K): 3.1 ± 0.1 kPa; vapor or sublimation pressure ([1]; 338.15 K): 4.2 ± 0.1 kPa; vapor or sublimation pressure ([1]; 341.2 K): 5 ± 0.1 kPa; vapor or sublimation pressure ([1]; 343.15 K): 5.6 ± 0.1 kPa; vapor or sublimation pressure ([1]; 348.75 K): 7.5 ± 0.1 kPa; vapor or sublimation pressure ([1]; 354.37 K): 10 ± 0.1 kPa; vapor or sublimation pressure ([1]; 362.63 K): 15 ± 0.1 kPa; vapor or sublimation pressure ([1]; 368.86 K): 20 ± 0.1 kPa; vapor or sublimation pressure ([1]; 378.2 K): 30 ± 0.1 kPa; vapor or sublimation pressure ([1]; 385.33 K): 40 ± 0.1 kPa; vapor or sublimation pressure ([1]; 391.03 K): 50 ± 0.1 kPa; vapor or sublimation pressure ([1]; 395.87 K): 60 ± 0.2 kPa; vapor or sublimation pressure ([1]; 400.1 K): 70 ± 0.2 kPa; vapor or sublimation pressure ([1]; 403.86 K): 80 ± 0.2 kPa; vapor or sublimation pressure ([1]; 407.25 K): 90 ± 0.2 kPa; vapor or sublimation pressure ([1]; 408.9 K): 95.1 ± 0.2 kPa |
| CCCCCO [pentan-1-ol] + C=C(C)[C@H]1CC=C(C)CC1 | – | – | – | – | – | – | – | – | – | – | – | – | – | – | – | – | – | – | – | viscosity ([2]; 293.15 K): 4.03 ± 0.04 mPa·s; mass density ([2]; 293.15 K): 814.7 ± 0.3 kg/m3; viscosity ([2]; 303.15 K): 3.02 ± 0.03 mPa·s; mass density ([2]; 303.15 K): 807.2 ± 0.3 kg/m3; viscosity ([2]; 313.15 K): 2.315 ± 0.024 mPa·s; mass density ([2]; 313.15 K): 799.8 ± 0.3 kg/m3; viscosity ([2]; 323.15 K): 1.801 ± 0.019 mPa·s; mass density ([2]; 323.15 K): 792.2 ± 0.3 kg/m3; viscosity ([2]; 333.15 K): 1.425 ± 0.015 mPa·s; mass density ([2]; 333.15 K): 784.3 ± 0.3 kg/m3; viscosity ([2]; 343.15 K): 1.146 ± 0.013 mPa·s; mass density ([2]; 343.15 K): 776.3 ± 0.3 kg/m3; viscosity ([2]; 353.15 K): 0.935 ± 0.011 mPa·s; mass density ([2]; 353.15 K): 768 ± 0.3 kg/m3; viscosity ([2]; 363.15 K): 0.772 ± 0.009 mPa·s; mass density ([2]; 363.15 K): 759.5 ± 0.3 kg/m3; viscosity ([2]; 373.15 K): 0.647 ± 0.008 mPa·s; mass density ([2]; 373.15 K): 750.6 ± 0.3 kg/m3 |
